Measurements published in patent publication US20250018047A1, “METHODS AND COMPOSITIONS FOR TARGETED PROTEIN DEGRADATION” (Ranok Therapeutics (Hangzhou) Co. Ltd., priority 2021, published 2025).
pIC50: −log10 of the molar value. Where two headings read alike, the source gives them in different places.

Legend:
[1] = tested on: AsPC-1 human pancreatic adenocarcinoma; assay: CellTiter-Glo cancer cell line proliferation assay, AsPC-1; format: cell-based
Method: (§1) Cell lines were cultured according to ATCC and recommendations.
(§2) CellTiter-Glo® Reagent Cancer Cell Line Proliferation Assays
(§3) Cells were plated in 96-well tissue culture plates at 4,000 cells/well and incubated at 37° C./5% CO2 for 24 hr in 100 μl of media. […] Cells were then treated with test compounds at various concentrations with a final concentration of 0.5% DMSO/well, and then incubated at 37° C./5% CO2 for 24 hr. 100 μl of CellTiter-Glo® Reagent (Promega Corporation, Madison, WI) was added to each well and processed according manufacturer's protocol. Results were analyzed and IC50-values were calculated in GraphPad 7 software.

KRAS(G12D)/SOS1 = biological target: T1, KRAS(G12D)/SOS1 (Homo sapiens, UniProt P01116, G12D); assay: KRAS(G12D)/SOS1 homogeneous time-resolved fluorescence (HTRF) assay; format: binding; conditions: absence of GTP, 4° C. for 3 hr
T1 construct: purchased Cisbio 63ADK000CB16PEG
Method: The test compound was mixed and incubated with reaction components, incubated in a sealed plate at 4° C. for 3 hr and fluorescence was measured using a PerkinElmer Envision plate reader.

[2] = tested on: A-427 human lung carcinoma; assay: CellTiter-Glo cancer cell line proliferation assay, A-427; format: cell-based; conditions: read-out: A427 at 24 hrs, IC50
Method: as §1, §2, §3

KRAS(G12D) = biological target: T2, KRAS(G12D) (Homo sapiens, UniProt P01116, G12D); assay: SW1990 WB assay (degradation DC50, Dmax); format: cell-based; conditions: Western blot, SW1990 cells
T2 construct: endogenous in cells; host or cells: SW1990
T2 sequence (P01116 1-188 isoform P01116-2 G12D): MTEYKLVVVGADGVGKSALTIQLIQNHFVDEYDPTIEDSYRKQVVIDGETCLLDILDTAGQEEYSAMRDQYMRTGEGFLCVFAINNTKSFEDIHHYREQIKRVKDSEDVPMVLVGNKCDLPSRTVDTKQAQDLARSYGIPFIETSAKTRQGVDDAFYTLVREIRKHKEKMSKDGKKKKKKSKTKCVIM

T1 sequence (P01116 1-188 isoform P01116-2 G12D): as above

SMILES	pIC50 ([1]; Homo sapiens, ASPC1, 24 hr)	pIC50 (KRAS(G12D)/SOS1)	pIC50 ([2]; Homo sapiens, A-427, 24 hr)	DC50 (KRAS(G12D)) [nM]	Dmax (KRAS(G12D)) [%]	WB data SW1990 DMax (KRAS(G12D))	pIC50 ([1]; 24 hr, read-out: ASPC1 at 24 hrs, IC50)	pIC50 ([2]; 24 hr)
CN1C[C@H](N2CCN(C(=O)C3CCN(c4ccc5c(c4)C(=O)N(C4CCC(=O)NC4=O)C5=O)CC3)CC2)C[C@@H]1COc1nc(N2CC3CCC(C2)N3)c2cnc(-c3cc(O)cc4ccccc34)c(F)c2n1 (stereo partly drawn) [Compound 37]	< 6.00	> 7.00	< 6.00					
O=C1CCC(N2C(=O)c3ccc(N4CCC(C(=O)N5CCN(CC6(COc7nc(N8CC9CCC(C8)N9)c8cnc(-c9cc(O)cc%10ccccc9%10)c(F)c8n7)CC6)CC5)CC4)cc3C2=O)C(=O)N1 (stereo not drawn) [Compound 39]	< 6.00	> 7.00	< 6.00					
O=C1CCC(N2Cc3cc(CN4CCN(CC5(COc6nc(N7CC8CCC(C7)N8)c7cnc(-c8cc(O)cc9ccccc89)c(F)c7n6)CC5)CC4)ccc3C2=O)C(=O)N1 (stereo not drawn) [Compound 40]	< 6.00	> 7.00	< 6.00					
O=C1CCC(N2C(=O)c3ccc(CN4CCN(CC5(COc6nc(N7CC8CCC(C7)N8)c7cnc(-c8cc(O)cc9ccccc89)c(F)c7n6)CC5)CC4)cc3C2=O)C(=O)N1 (stereo not drawn) [Compound 41]	< 6.00	> 7.00	< 6.00					
O=C1CCC(N2C(=O)c3cccc(N4CCC(CN5CCN(CC6(COc7nc(N8CC9CCC(C8)N9)c8cnc(-c9cc(O)cc%10ccccc9%10)c(F)c8n7)CC6)CC5)CC4)c3C2=O)C(=O)N1 (stereo not drawn) [Compound 42]	< 6.00	> 7.00	< 6.00					
CN1C[C@H](N2CCN(C(=O)C3CCN(c4ccc5c(c4)CN(C4CCC(=O)NC4=O)C5=O)CC3)CC2)C[C@@H]1COc1nc(N2CC3CCC(C2)N3)c2cnc(-c3cc(O)cc4ccccc34)c(F)c2n1 (stereo partly drawn) [Compound 44]	< 6.00	> 7.00	< 6.00					
CN1C[C@H](N2CCC(C(=O)N3CCN(c4ccc5c(c4)C(=O)N(C4CCC(=O)NC4=O)C5=O)CC3)CC2)C[C@@H]1COc1nc(N2CC3CCC(C2)N3)c2cnc(-c3cc(O)cc4ccccc34)c(F)c2n1 (stereo partly drawn) [Compound 46]	< 6.00	> 7.00	< 6.00					
O=C1CCC(N2C(=O)c3ccc(N4CCC(CN5CCN(CC6(COc7nc(N8CC9CCC(C8)N9)c8cnc(-c9cc(O)cc%10ccccc9%10)c(F)c8n7)CC6)CC5)CC4)cc3C2=O)C(=O)N1 (stereo not drawn) [Compound 47]	< 6.00	> 7.00	< 6.00					
C#Cc1cccc2cccc(-c3ncc4c(N5CC6CCC(C5)N6)nc(OCC5(CN6CCN(CC7CCN(c8ccc9c(c8)C(=O)N(C8CCC(=O)NC8=O)C9=O)CC7)CC6)CC5)nc4c3F)c12 (stereo not drawn) [Compound 48]	< 6.00	> 7.00	< 6.00					
O=C1CCC(N2C(=O)c3ccc(CN4CCN([C@H]5CN6CCC[C@@]6(COc6nc(N7CC8CCC(C7)N8)c7cnc(-c8cc(O)cc9ccccc89)c(F)c7n6)C5)CC4)cc3C2=O)C(=O)N1 (stereo partly drawn) [Compound 50]	< 6.00	> 7.00	< 6.00					
C#Cc1cccc2cccc(-c3ncc4c(N5CC6CCC(C5)N6)nc(OCC5(CN6CCN(C(=O)C7CCN(c8ccc9c(c8)CN(C8CCC(=O)NC8=O)C9=O)CC7)CC6)CC5)nc4c3F)c12 (stereo not drawn) [Compound 51]	< 6.00	> 7.00	< 6.00					
C#Cc1cccc2cc(O)cc(-c3ncc4c(N5CC6CCC(C5)N6)nc(OCC5(CN6CCN(CC7CCN(c8ccc9c(c8)C(=O)N(C8CCC(=O)NC8=O)C9=O)CC7)CC6)CC5)nc4c3F)c12 (stereo not drawn) [Compound 56]		> 7.00	6.00 to 7.00	< 100	> 50			
C#Cc1cccc2cc(O)cc(-c3ncc4c(N5CC6CCC(C5)N6)nc(OCC5(CN6CCN(CC7CCN(c8ccc9c(c8)CN(C8CCC(=O)NC8=O)C9=O)CC7)CC6)CC5)nc4c3F)c12 (stereo not drawn) [Compound 57]	> 7.00	> 7.00	> 7.00	< 100	> 50			
C#Cc1c(F)ccc2cc(O)cc(-c3ncc4c(N5CC6CCC(C5)N6)nc(OCC5(CN6CCN(CC7CCN(c8ccc9c(c8)C(=O)N(C8CCC(=O)NC8=O)C9=O)CC7)CC6)CC5)nc4c3F)c12 (stereo not drawn) [Compound 59]	6.00 to 7.00	> 7.00	6.00 to 7.00					
COc1nc(-c2cc(O)cc3ccccc23)c(F)c2nc(OCC3(CN4CCN(CC5CCN(c6ccc7c(c6)C(=O)N(C6CCC(=O)NC6=O)C7=O)CC5)CC4)CC3)nc(N3CC4CCC(C3)N4)c12 (stereo not drawn) [Compound 66]	6.00 to 7.00	> 7.00	6.00 to 7.00					
C#Cc1cccc2cc(O)cc(-c3ncc4c(N5CC6CCC(C5)N6)nc(OCC5(CN6CCN(CC7CCN(c8ccc9c(c8)CN(C8CCC(=O)N(C)C8=O)C9=O)CC7)CC6)CC5)nc4c3F)c12 (stereo not drawn) [Compound 71]		> 7.00	6.00 to 7.00	> 1000	10 to 50			

SMILES	pIC50 ([1]; Homo sapiens, ASPC1, 24 hr)	pIC50 (KRAS(G12D)/SOS1)	pIC50 ([2]; Homo sapiens, A-427, 24 hr)	DC50 (KRAS(G12D)) [nM]	Dmax (KRAS(G12D)) [%]	WB data SW1990 DMax (KRAS(G12D))	pIC50 ([1]; 24 hr, read-out: ASPC1 at 24 hrs, IC50)	pIC50 ([2]; 24 hr)
C#Cc1cccc2cccc(-c3ncc4c(N5CC6CCC(C5)N6)nc(OC[C@H]5C[C@@H](N6CCN(C[C@H]7CC[C@H](Nc8ccc9c(c8)C(=O)N(C8CCC(=O)NC8=O)C9=O)CC7)CC6)CN5C)nc4c3F)c12 (stereo partly drawn) [Compound 77]	< 6.00	> 7.00	< 6.00					
C#Cc1cccc2cccc(-c3ncc4c(N5CC6CCC(C5)N6)nc(OC[C@H]5CC[C@@H](CN6CCN(CC7CCC(Nc8ccc9c(c8)C(=O)N(C8CCC(=O)NC8=O)C9=O)CC7)CC6)N5C)nc4c3F)c12 (stereo partly drawn) [Compound 79]	< 6.00	> 7.00	< 6.00					
O=C1CCC(N2Cc3cc(N4CCN(CC5(COc6nc(N7CC8CCC(C7)N8)c7cnc(-c8cccc9cccc(Cl)c89)c(F)c7n6)CC5)CC4)ccc3C2=O)C(=O)N1 (stereo not drawn) [Compound 80]	< 6.00	> 7.00	< 6.00					
C#Cc1cccc2cc(O)cc(-c3ncc4c(N5CC6CCC(C5)N6)nc(OCC5(CN(C)CC6CCN(c7ccc8c(c7)CN(C7CCC(=O)NC7=O)C8=O)CC6)CC5)nc4c3F)c12 (stereo not drawn) [Compound 84]	< 6.00		< 6.00	100 to 1000	> 50			
C#Cc1cccc2cc(O)cc(-c3ncc4c(N5CC6CCC(C5)N6)nc(OCC5(CN6CCC(C(=O)N7CCN(c8ccc9c(c8)CN(C8CCC(=O)NC8=O)C9=O)CC7)CC6)CC5)nc4c3F)c12 (stereo not drawn) [Compound 85]	< 6.00		> 7.00	100 to 1000	> 50			
C#Cc1cccc2cc(O)cc(-c3ncc4c(N5CC6CCC(C5)N6)nc(OCC5(CN6CCN(CC7CCN(c8ccc9c(c8)C(=O)N(C8CCC(=O)NC8=O)C9)CC7)CC6)CC5)nc4c3F)c12 (stereo not drawn) [Compound 86]	> 7.00		> 7.00	< 100	> 50			
C#Cc1cccc2cc(O)cc(-c3ncc4c(N5CC6CCC(C5)N6C(=O)C(F)(F)F)nc(OCC5(CN6CCN(CC7CCN(c8ccc9c(c8)CN(C8CCC(=O)NC8=O)C9=O)CC7)CC6)CC5)nc4c3F)c12.Cl (stereo not drawn) [Compound 87]						B (Dmax = 10-50%)	6.00 to 7.00	6.00 to 7.00
C#Cc1c(F)ccc2cc(O)cc(-c3ncc4c(N5CC6CCC(C5)N6C(=O)CC)nc(OCC5(CN6CCN(CC7CCN(c8ccc9c(c8)CN(C8CCC(=O)NC8=O)C9=O)CC7)CC6)CC5)nc4c3F)c12 (stereo not drawn) [Compound 91]	< 6.00		< 6.00	> 1000	< 10			
C#Cc1c(F)ccc2cc(O)cc(-c3nc(OC)c4c(N5CCN(C(=O)CC)[C@H](CC#N)C5)nc(OCC5(CN6CCN(CC7CCN(c8ccc9c(c8)CN(C8CCC(=O)NC8=O)C9=O)CC7)CC6)CC5)nc4c3F)c12 (stereo partly drawn) [Compound 92]	< 6.00	> 7.00	< 6.00					
C#Cc1c(F)ccc2cc(O)cc(-c3ncc4c(N5CCN(C(=O)CC)[C@@H](CC#N)C5)nc(OCC5(CN6CCN(CC7CCN(c8ccc9c(c8)CN(C8CCC(=O)NC8=O)C9=O)CC7)CC6)CC5)nc4c3F)c12 (stereo partly drawn) [Compound 97]	< 6.00	> 7.00	< 6.00					
C#Cc1c(F)ccc2cc(O)cc(-c3nc(O)c4c(N5CC6CCC(C5)N6)nc(OCC5(CN6CCN(CC7CCN(c8ccc9c(c8)CN(C8CCC(=O)NC8=O)C9=O)CC7)CC6)CC5)nc4c3F)c12 (stereo not drawn) [Compound 101]	6.00 to 7.00		< 6.00	> 1000	< 10			
C#Cc1c(F)ccc2cc(O)cc(-c3ncc4c(N5CC6CCC(C5)N6)nc(OCC5(CN6CCN(C7CCN(c8ccc9c(c8)CN(C8CCC(=O)NC8=O)C9=O)CC7)CC6)CC5)nc4c3F)c12 (stereo not drawn) [Compound 104]	6.00 to 7.00	> 7.00		< 100	> 50			
C#Cc1c(F)ccc2cc(O)cc(-c3ncc4c(N5CC6CCC(C5)N6)nc(OCC5(CN6CCC(N7CCC(c8ccc9c(c8)CN(C8CCC(=O)NC8=O)C9=O)CC7)CC6)CC5)nc4c3F)c12 (stereo not drawn) [Compound 107]	> 7.00	> 7.00		< 100				
C#Cc1c(F)ccc2cc(O)cc(-c3ncc4c(N5CC6CCC(C5)N6)nc(OCC5(CN6CCC(CN7CCC(c8ccc9c(c8)CN(C8CCC(=O)NC8=O)C9=O)CC7)CC6)CC5)nc4c3F)c12 (stereo not drawn) [Compound 111]		> 7.00		< 100	> 50			
C#Cc1c(F)ccc2cc(O)cc(-c3nc(OC)c4c(N5CC6CCC(C5)N6)nc(OCC5(CN6CCN(C7CCN(c8ccc9c(c8)CN(C8CCC(=O)NC8=O)C9=O)CC7)CC6)CC5)nc4c3F)c12 (stereo not drawn) [Compound 112]		> 7.00		< 100				
